Assay: Solid-state properties of Form A (hygroscopicity)
Assay type: physicochemical
Conditions: crystalline anhydrate

In the case of CN1CCC(C(=O)c2cccc(NC(=O)c3c(F)cc(F)cc3F)n2)CC1.O=C(O)CCC(=O)O [Form A, 2,4,6-Trifluoro-N-(6-(1-methylpiperidine-4-carbonyl)pyridine-2-yl)benzamide Hemisuccinate], the hygroscopicity is reported as “non-hygroscopic”.
